According to patent US8821927B2, “Pharmaceutical composition” (SmithKline Beecham (Cork) Limited, priority 2005, dated 2014):

Assay: solubility in aqueous media
Assay type: physicochemical
Settings: over the physiologically relevant pH range
Source text: Of particular interest is N-{3-Chloro-4-[(3-fluorobenzyl)oxy]phenyl}-6-[5-({[2-(methanesulphonyl)ethyl]amino}methyl)-2-furyl]-4-quinazolinamine ditosylate monohydrate.

## CS(=O)(=O)CCNCc1ccc(-c2ccc3ncnc(Nc4ccc(OCc5cccc(F)c5)c(Cl)c4)c3c2)o1 [GW572016, N-{3-Chloro-4-[(3-fluorobenzyl)oxy]phenyl}-6-[5-({[2-(methanesulphonyl)ethyl]amino}methyl)-2-furyl]-4-quinazolinamine]
  solubility in aqueous media: poorly soluble
